This is an account of results in patent publication US9630963B2, “Quinolone derivatives as fibroblast growth factor inhibitors” (Principia Biopharma, Inc., priority 2013, dated 2017).

The target in one test is human recombinant FGFR4 (Homo sapiens, UniProt P22455). Nature of the test: FGFR family enzymatic activity assay (Caliper-based kinase assay), FGFR4. The test is classed as biochemical. The note with it: FGFR4 2 nM, ATP 250 μM, peptide substrate 1 μM, room temperature 3 h. The source says:
(§1) A Caliper-based kinase assay (Caliper Life Sciences, Hopkinton, Mass.) was used to measure inhibition of FGFR family (FGFR1, FGFR2, FGFR3, FGFR4) kinase activity of a compound of Formula (I′) or (I). […] This value is presented as the IC50.

For another test, the target named is human recombinant FGFR1 (Homo sapiens, UniProt P11362). Nature of the test: FGFR family enzymatic activity assay (Caliper-based kinase assay), FGFR1. In kind it is biochemical. The note with it: FGFR1 0.5 nM, ATP 100 μM, peptide substrate 1 μM, room temperature 3 h.
human recombinant FGFR1, sequence (P11362 22-822): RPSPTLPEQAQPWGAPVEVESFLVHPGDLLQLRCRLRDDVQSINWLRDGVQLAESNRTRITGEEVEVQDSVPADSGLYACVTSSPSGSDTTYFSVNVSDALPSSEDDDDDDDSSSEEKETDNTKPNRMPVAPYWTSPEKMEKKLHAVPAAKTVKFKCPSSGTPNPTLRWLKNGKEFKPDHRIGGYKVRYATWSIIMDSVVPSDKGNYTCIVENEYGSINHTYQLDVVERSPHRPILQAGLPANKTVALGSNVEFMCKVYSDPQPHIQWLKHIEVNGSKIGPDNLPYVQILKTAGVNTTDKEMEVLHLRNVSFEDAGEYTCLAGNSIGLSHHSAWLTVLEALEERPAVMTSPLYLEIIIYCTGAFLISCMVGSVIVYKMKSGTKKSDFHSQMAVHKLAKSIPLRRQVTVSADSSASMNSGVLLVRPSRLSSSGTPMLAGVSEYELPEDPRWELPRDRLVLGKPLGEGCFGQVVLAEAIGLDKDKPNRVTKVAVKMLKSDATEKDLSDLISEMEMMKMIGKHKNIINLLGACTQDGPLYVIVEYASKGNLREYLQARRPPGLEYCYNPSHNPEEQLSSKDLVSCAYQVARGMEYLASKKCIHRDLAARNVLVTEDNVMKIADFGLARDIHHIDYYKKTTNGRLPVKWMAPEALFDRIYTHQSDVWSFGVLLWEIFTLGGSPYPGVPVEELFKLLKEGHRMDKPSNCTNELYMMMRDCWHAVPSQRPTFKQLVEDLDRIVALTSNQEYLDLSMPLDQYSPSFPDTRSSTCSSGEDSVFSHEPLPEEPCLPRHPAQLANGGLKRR
Text: as §1

The next test concerns the target human recombinant FGFR2 (Homo sapiens, UniProt P21802). Nature of the test: FGFR family enzymatic activity assay (Caliper-based kinase assay), FGFR2. The test is classed as biochemical. The note with it: FGFR2 0.1 nM, ATP 75 μM, peptide substrate 1 μM, room temperature 3 h.
Text: as §1

Another test has as its target human recombinant FGFR3 (Homo sapiens, UniProt P22607). Nature of the test: FGFR family enzymatic activity assay (Caliper-based kinase assay), FGFR3. The test is classed as biochemical. The note with it: FGFR3 0.9 nM, ATP 120 μM, peptide substrate 1 μM, room temperature 3 h.
Text: as §1

The next test relates to SNU-16 cells. Nature of the test: Inhibition of FGFR2-dependent cell growth (Cell-titer Glo). The note with it: Homo sapiens, SNU16 cells, 72 hrs incubation, cell viability by Cell-titer Glo. The test is classed as cell-based. As to the method: The cell-based effects of FGFR inhibitors were determined by measuring inhibition of FGFR-dependent cell line growth. […] Percent inhibition of cell growth was calculated as a percentage of untreated cell viability. The percent inhibition was plotted as a function of log compound concentration. The IC50 was then calculated for each compound using Prism software from GraphPad.

Structures are written as SMILES. Where a name gives a salt, the structure may show the parent alone.

human recombinant FGFR2, sequence (P21802 22-821): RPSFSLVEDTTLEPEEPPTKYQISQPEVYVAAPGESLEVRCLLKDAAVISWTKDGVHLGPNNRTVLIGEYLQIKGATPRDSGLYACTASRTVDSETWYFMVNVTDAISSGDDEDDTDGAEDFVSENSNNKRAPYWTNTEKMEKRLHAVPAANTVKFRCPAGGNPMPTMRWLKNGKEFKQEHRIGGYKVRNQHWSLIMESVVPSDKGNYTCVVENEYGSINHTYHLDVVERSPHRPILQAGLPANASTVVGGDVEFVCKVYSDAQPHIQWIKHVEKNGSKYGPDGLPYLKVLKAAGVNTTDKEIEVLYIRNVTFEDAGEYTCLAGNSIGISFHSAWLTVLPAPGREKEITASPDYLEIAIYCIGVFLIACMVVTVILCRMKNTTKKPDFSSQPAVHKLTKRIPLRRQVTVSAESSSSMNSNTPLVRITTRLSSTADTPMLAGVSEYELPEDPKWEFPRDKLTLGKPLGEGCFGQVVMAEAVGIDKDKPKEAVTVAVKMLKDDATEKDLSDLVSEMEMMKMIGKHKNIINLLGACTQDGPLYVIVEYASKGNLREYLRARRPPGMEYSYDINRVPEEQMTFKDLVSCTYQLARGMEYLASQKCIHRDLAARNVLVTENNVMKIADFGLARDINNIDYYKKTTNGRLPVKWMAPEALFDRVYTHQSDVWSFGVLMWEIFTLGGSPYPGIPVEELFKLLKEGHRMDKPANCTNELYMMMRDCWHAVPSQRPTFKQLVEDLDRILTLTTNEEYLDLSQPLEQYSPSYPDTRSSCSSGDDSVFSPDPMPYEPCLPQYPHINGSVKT
human recombinant FGFR4, sequence (P22455 22-802): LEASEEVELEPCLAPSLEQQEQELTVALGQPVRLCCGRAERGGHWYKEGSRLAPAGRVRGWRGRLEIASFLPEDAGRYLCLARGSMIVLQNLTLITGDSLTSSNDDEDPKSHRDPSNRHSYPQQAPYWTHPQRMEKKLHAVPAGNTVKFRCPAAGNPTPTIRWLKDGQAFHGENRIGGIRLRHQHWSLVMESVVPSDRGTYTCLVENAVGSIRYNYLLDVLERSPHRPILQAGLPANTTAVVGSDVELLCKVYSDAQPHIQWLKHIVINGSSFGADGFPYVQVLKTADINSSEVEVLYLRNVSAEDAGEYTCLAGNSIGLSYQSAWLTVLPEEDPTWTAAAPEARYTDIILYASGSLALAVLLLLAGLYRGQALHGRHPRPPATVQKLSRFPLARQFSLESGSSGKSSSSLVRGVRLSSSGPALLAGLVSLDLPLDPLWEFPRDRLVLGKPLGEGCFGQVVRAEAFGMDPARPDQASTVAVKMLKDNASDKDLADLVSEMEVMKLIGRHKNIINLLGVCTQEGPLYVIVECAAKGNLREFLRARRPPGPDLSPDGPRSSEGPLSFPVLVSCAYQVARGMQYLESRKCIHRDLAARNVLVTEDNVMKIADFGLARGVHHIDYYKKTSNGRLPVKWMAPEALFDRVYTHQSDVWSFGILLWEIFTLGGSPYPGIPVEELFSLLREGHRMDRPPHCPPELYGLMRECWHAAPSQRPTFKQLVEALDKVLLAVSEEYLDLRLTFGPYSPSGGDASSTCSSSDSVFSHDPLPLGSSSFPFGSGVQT
human recombinant FGFR3, sequence (P22607 23-806): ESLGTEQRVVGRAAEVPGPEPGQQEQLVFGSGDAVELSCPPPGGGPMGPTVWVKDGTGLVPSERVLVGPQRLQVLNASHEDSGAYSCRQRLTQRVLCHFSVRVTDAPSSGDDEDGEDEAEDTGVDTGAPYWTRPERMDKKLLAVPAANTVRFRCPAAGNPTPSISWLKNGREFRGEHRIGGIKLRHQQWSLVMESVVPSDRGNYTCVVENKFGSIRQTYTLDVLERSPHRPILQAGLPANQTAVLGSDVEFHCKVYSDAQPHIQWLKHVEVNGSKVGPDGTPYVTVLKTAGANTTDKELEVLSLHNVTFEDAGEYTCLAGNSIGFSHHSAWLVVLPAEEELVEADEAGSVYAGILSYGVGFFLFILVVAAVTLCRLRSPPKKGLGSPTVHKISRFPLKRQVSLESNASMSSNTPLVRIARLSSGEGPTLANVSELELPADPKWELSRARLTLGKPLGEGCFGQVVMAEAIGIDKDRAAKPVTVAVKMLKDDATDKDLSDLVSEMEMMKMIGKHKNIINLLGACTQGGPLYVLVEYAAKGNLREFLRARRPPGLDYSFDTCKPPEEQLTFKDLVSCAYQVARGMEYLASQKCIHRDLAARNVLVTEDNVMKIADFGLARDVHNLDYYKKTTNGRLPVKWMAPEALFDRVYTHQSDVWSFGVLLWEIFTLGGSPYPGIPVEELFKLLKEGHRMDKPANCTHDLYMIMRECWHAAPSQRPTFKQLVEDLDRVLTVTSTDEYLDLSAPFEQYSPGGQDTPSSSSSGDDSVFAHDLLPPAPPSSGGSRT

For orientation: IC50 means the concentration that gives 50% inhibition. As for `C=CC(=O)N1CCCC(CCn2c(=O)c(-c3ccccc3Cl)cc3cnc(NCCCCN(CC)CC)nc32)C1` (stereo not drawn) [Example 2, 8-(2-(1-acryloylpiperidin-3-yl)ethyl)-6-(2-chlorophenyl)-2-(4-(diethylamino)-butylamino)pyrido[2,3-d]pyrimidin-7(8H)-one], the IC50 on human recombinant FGFR4 was over 5000 nM; at human recombinant FGFR1, 840 nM; at human recombinant FGFR2, 701 nM; at human recombinant FGFR3, 1040 nM.

Turning to `C=CC(=O)Nc1ccc(CCn2c(=O)c(-c3cc(OC)cc(OC)c3Cl)cc3cnc(NCC4CCN(C)CC4)nc32)cc1` [Example 71, N-(4-(2-(6-(2-chloro-3,5-dimethoxyphenyl)-2-(((1-methylpiperidin-4-yl)methyl)-amino)-7-oxopyrido[2,3-d]pyrimidin-8(7H)-yl)ethyl)phenyl)acrylamide], the IC50 on human recombinant FGFR4 was found to be 95.8 nM; on human recombinant FGFR1 it was 1 nM; at human recombinant FGFR2 it was 1.3 nM; in the test with SNU-16 cells, 4.9 nM; on human recombinant FGFR3, 5.9 nM.

On to `C=CC(=O)Nc1cccc(Cn2c(=O)c(-c3c(Cl)c(OC)cc(OC)c3Cl)cc3cnc(NCCCCN(CC)CC)nc32)c1` [Example 6, N-(3-[[6-(2,6-dichloro-3,5-dimethoxyphenyl)-2-[[4-(diethylamino)butyl]-amino]-7-oxo-7H,8H-pyrido[2,3-d]pyrimidin-8-yl]methyl]phenyl)acrylamide], for which the IC50 at human recombinant FGFR4 was 33.2 nM; on human recombinant FGFR1 it was 1.3 nM; on human recombinant FGFR2, 1 nM; at human recombinant FGFR3, 3.1 nM.

In the case of `C=CC(=O)Nc1ccc(CCn2c(=O)c(-c3c(Cl)c(OC)cc(OC)c3Cl)cc3cnc(NCCN4CCOCC4)nc32)cc1` [Example 44, N-(4-(2-(6-(2,6-dichloro-3,5-dimethoxyphenyl)-2-((2-morpholinoethyl)amino)-7-oxopyrido[2,3-d]pyrimidin-8(7H)-yl)ethyl)phenyl)acrylamide], the IC50 is 14 nM on human recombinant FGFR4; 1 nM on human recombinant FGFR1; 2.5 nM at human recombinant FGFR2; 3.1 nM in the test on SNU-16 cells; 4 nM at human recombinant FGFR3.

As to `C=CC(=O)Nc1ccc(CCn2c(=O)c(-c3c(Cl)c(OC)cc(OC)c3Cl)cc3cnc(NCCCCN(CC)CC)nc32)cc1` [Example 5, N-(4-(2-(6-(2,6-dichloro-3,5-dimethoxyphenyl)-2-(4-(diethylamino)butylamino)-7-oxopyrido[2,3-d]pyrimidin-8(7H)-yl)ethyl)phenyl)acrylamide hydrochloride], the IC50 is 32.4 nM on human recombinant FGFR4; 1.1 nM at human recombinant FGFR1; 1.5 nM at human recombinant FGFR2; 5.6 nM in the test with SNU-16 cells; 5.5 nM on human recombinant FGFR3.

On to `C=CC(=O)Nc1cccc(CCn2c(=O)c(-c3cc(OC)cc(OC)c3)cc3cnc(NC)nc32)c1` [Example 8, N-(3-(2-(6-(3,5-dimethoxyphenyl)-2-(methylamino)-7-oxopyrido[2,3-d]pyrimidin-8(7H)-yl)ethyl)phenyl)acrylamide], for which the IC50 on human recombinant FGFR1 came out at 31.2 nM; with SNU-16 cells, 83 nM; on human recombinant FGFR3 it was 19 nM.

Turning to `C=CC(=O)Nc1ccc(CCn2c(=O)c(-c3c(Cl)c(OC)cc(OC)c3Cl)cc3cnc(NCC4CCN(C)CC4)nc32)cc1` [Example 75, N-(4-(2-(6-(2,6-dichloro-3,5-dimethoxyphenyl)-2-(((1-methylpiperidin-4-yl)methyl)-amino)-7-oxopyrido[2,3-d]pyrimidin-8(7H)-yl)ethyl)phenyl)acrylamide], the IC50 came out at 14.7 nM at human recombinant FGFR4; 0.4 nM at human recombinant FGFR1; 0.6 nM at human recombinant FGFR2; 2.2 nM in the test with SNU-16 cells; 3.3 nM at human recombinant FGFR3.

As to `C=CC(=O)Nc1ccc(CCn2c(=O)c(-c3c(Cl)c(OC)cc(OC)c3Cl)cc3cnc(NC(CO)CO)nc32)cc1` [Example 76, N-(4-(2-(6-(2,6-dichloro-3,5-dimethoxyphenyl)-2-((1,3-dihydroxypropan-2-yl)-amino)-7-oxopyrido[2,3-d]pyrimidin-8(7H)-yl)ethyl)phenyl)acrylamide], the IC50 on human recombinant FGFR4 was 9.6 nM; on human recombinant FGFR1, 0.8 nM; at human recombinant FGFR2, 1.6 nM; with SNU-16 cells, 7.4 nM; on human recombinant FGFR3, 6.7 nM.

Turning to `C=CC(=O)Nc1ccc(CCn2c(=O)c(-c3cc(OC)cc(OC)c3Cl)cc3cnc(NC)nc32)cn1` [Example 16, N-(5-(2-(6-(2-chloro-3,5-dimethoxyphenyl)-2-(methylamino)-7-oxopyrido[2,3-d]pyrimidin-8(7H)-yl)ethyl)pyridin-2-yl)acrylamide], the IC50 on human recombinant FGFR4 was found to be 6.9 nM; on human recombinant FGFR2, 1.7 nM; on human recombinant FGFR3, 2.3 nM.

For `C=CC(=O)Nc1ccc(CCn2c(=O)c(-c3cc(OC)cc(OC)c3Cl)cc3cnc(NCCN4CCN(CC(C)(C)O)CC4)nc32)cc1` [Example 68, N-(4-(2-(6-(2-chloro-3,5-dimethoxyphenyl)-2-((2-(4-(2-hydroxy-2-methylpropyl)-piperazin-1-yl)ethyl)amino)-7-oxopyrido[2,3-d]pyrimidin-8(7H)-yl)ethyl)phenyl)acrylamide], the half-maximal inhibitory concentration (IC50) on human recombinant FGFR4 was 53.8 nM; at human recombinant FGFR1 it was 0.7 nM; at human recombinant FGFR2, 1.6 nM; in the test on SNU-16 cells it was 3.1 nM; on human recombinant FGFR3 it was 8.1 nM.

Take `C=CC(=O)Nc1ccc(CCn2c(=O)c(-c3cc(OC)cc(OC)c3Cl)cc3cnc(NC(CO)CO)nc32)cc1` [Example 72, N-(4-(2-(6-(2-chloro-3,5-dimethoxyphenyl)-2-((1,3-dihydroxypropan-2-yl)amino)-7-oxopyrido[2,3-d]pyrimidin-8(7H)-yl)ethyl)phenyl)acrylamide]: the IC50 on human recombinant FGFR4 came out at 43.3 nM; at human recombinant FGFR2, 1.5 nM; at human recombinant FGFR3, 6.8 nM.

Turning to `C=CC(=O)Nc1ccc(CCn2c(=O)c(-c3cc(OC)cc(OC)c3F)cc3cnc(NCCN4CCOCC4)nc32)cc1` [Example 43, N-(4-(2-(6-(2-fluoro-3,5-dimethoxyphenyl)-2-((2-morpholinoethyl)amino)-7-oxopyrido[2,3-d]pyrimidin-8(7H)-yl)ethyl)phenyl)acrylamide], the IC50 on human recombinant FGFR4 came out at 71 nM; on human recombinant FGFR1 it was 2 nM; at human recombinant FGFR2 it was 2.6 nM; in the test on SNU-16 cells, 3.7 nM; at human recombinant FGFR3, 9.6 nM.

For the compound `C=CC(=O)Nc1ccc(CCn2c(=O)c(-c3cc(OC)cc(OC)c3Cl)cc3cnc(NC(C)(C)CO)nc32)cc1` [Example 61, N-(4-(2-(6-(2-chloro-3,5-dimethoxyphenyl)-2-((1-hydroxy-2-methylpropan-2-yl)-amino)-7-oxopyrido[2,3-d]pyrimidin-8(7H)-yl)ethyl)phenyl)acrylamide], the half-maximal inhibitory concentration (IC50) stood at 64.4 nM on human recombinant FGFR4; 1.5 nM on human recombinant FGFR1; 3.4 nM at human recombinant FGFR2; 6.8 nM in the test with SNU-16 cells; 9.2 nM at human recombinant FGFR3.

Consider `C=CC(=O)Nc1ccc(CCn2c(=O)c(-c3cc(OC)cc(OC)c3Cl)cc3cnc(NCCN4CCN(C(C)=O)CC4)nc32)cc1` [Example 66, N-(4-(2-(2-((2-(4-acetylpiperazin-1-yl)ethyl)amino)-6-(2-chloro-3,5-dimethoxy-phenyl)-7-oxopyrido[2,3-d]pyrimidin-8(7H)-yl)ethyl)phenyl)acrylamide], for which the IC50 was 41 nM at human recombinant FGFR4, 2 nM on human recombinant FGFR2 and 6.3 nM on human recombinant FGFR3.

As to `C=CC(=O)Nc1ccc(CCn2c(=O)c(-c3cc(OC)cc(OC)c3Cl)cc3cnc(NCCO)nc32)cc1` [Example 69, N-(4-(2-(6-(2-chloro-3,5-dimethoxyphenyl)-2-((2-hydroxyethyl)amino)-7-oxopyrido[2,3-d]pyrimidin-8(7H)-yl)ethyl)phenyl)acrylamide], the IC50 is 42.4 nM at human recombinant FGFR4, 2 nM on human recombinant FGFR2 and 6 nM at human recombinant FGFR3.

Consider `C=CC(=O)Nc1ccc(CCn2c(=O)c(-c3cc(OC)cc(OC)c3Cl)cc3cnc(NC)nc32)cc1` [Example 13, N-(4-(2-(6-(2-chloro-3,5-dimethoxyphenyl)-2-(methylamino)-7-oxopyrido[2,3-d]pyrimidin-8(7H)-yl)ethyl)phenyl)acrylamide], for which the results for the IC50 at human recombinant FGFR4, on human recombinant FGFR2 and at human recombinant FGFR3 were 25.6 nM, 1.4 nM and 2.3 nM, respectively.

For `C=CC(=O)Nc1cccc(Cn2c(=O)c(-c3cc(OC)cc(OC)c3Cl)cc3cnc(NCCN4CCOCC4)nc32)c1` [Example 102, N-(3-((6-(2-chloro-3,5-dimethoxyphenyl)-2-((2-morpholinoethyl)amino)-7-oxopyrido[2,3-d]pyrimidin-8(7H)-yl)methyl)phenyl)acrylamide], the IC50 stood at 1 nM at human recombinant FGFR1 and 3.9 nM in the test on SNU-16 cells.

For `C=CC(=O)Nc1ccc(CCn2c(=O)c(-c3cc(OC)cc(OC)c3Cl)cc3cnc(NCC(C)(C)O)nc32)nc1` [Example 109, N-(6-(2-(6-(2-chloro-3,5-dimethoxyphenyl)-2-((2-hydroxy-2-methylpropyl)amino)-7-oxopyrido[2,3-d]pyrimidin-8(7H)-yl)ethyl)pyridin-3-yl)acrylamide], the IC50 amounted to 1.6 nM on human recombinant FGFR1 and 3.5 nM in the test with SNU-16 cells.

Consider `C=CC(=O)Nc1ccc(CCn2c(=O)c(-c3c(Cl)c(OC)cc(OC)c3Cl)cc3cnc(NC4CCOCC4)nc32)nc1` [Example 81, N-(6-(2-(6-(2,6-dichloro-3,5-dimethoxyphenyl)-7-oxo-2-((tetrahydro-2H-pyran-4-yl)amino)-pyrido[2,3-d]pyrimidin-8(7H)-yl)ethyl)pyridin-3-yl)acrylamide], for which the values for the IC50 on human recombinant FGFR1 and in the test with SNU-16 cells were 0.3 nM and 4.1 nM, respectively.
